Measurements: publication PMC7507959, “A Structure-Based Mechanism for DNA Entry into the Cohesin Ring” (Molecular Cell, 2020)

B1: Ssl3 (natural protein, fission yeast (S. pombe), UniProt O94459 1-559, looked up)
chain: MTGLNETDARILVTSRHLFLWPLAETYFKNAEKVLQDCGVCDSFGRLLSTGLQCLYSVLMDTKMEPRVELLTRKRICEVLLSHTVEYADVEAILNRALIIAEQHNLTEYKFSLQLLLSRVFCRTSPKAAKVLLTRCVREAEEYAKVAEIYHSNNQSNPHRWVYEFLLATLEFQNVSQVANSIHNYANHHKHQHLQLLAMILNQSLPMDEISTDSDQISILCLVTQIAQCLRKGEILLAREILPKIHSKLESETFVWPSSYIDFFIDDTSKISIKWMSINQLYLLIYLISGFCYISDSTSGRASRFLQEGLRITGDFKHQERCVLEYLESQKWINNITKDMKYYLIATYLSRSRLSKAERILQSTEDDQTGFLGILKGMYLQKRGDLKKAEVHYRETAKNFSFRTDTFIISTLNLINILEDSAAASRCLESIEPLCNKHEKKIFKLWLLVLKVIREGPQVHQSNVLPRVIQQSSEYANTQLQYISLTELSERFGKLEHAEKMAISALELAKKSKDELWCLISGRILEDFYRSVQKYDKMRQQALENSAYSKLIEDIYSFV
notes: Ssl3 (Scc4/MAU2), small subunit of the fission yeast cohesin loader; Used as the Mis4-Ssl3 complex; construct (plasmid pSsl3) from Murayama and Uhlmann, 2014; also called Ssl3^Scc4/MAU2; Scc4; source: fission yeast, thiamine-repressible expression, purified as Mis4-Ssl3
B2: Psc3 (natural protein, fission yeast (S. pombe), UniProt O13816 1-962, looked up)
chain: MSESVTTGSDDDGGDRESSPVMLSQSFDPMSSSSNSSSEENSDDDYEKTISSKKRHPRPNSKGVNVKRSRRNAIVEEDPQEEIFNNLFAFLLDQKVDTMDIAVSWFADYAKDNQSALANLINFILKCCGCNRAINVFDVQDQDSASATLSQIQLSVERTSTRDYPLNSKNLKFRNFRKRLTGLLSNFVSQLSIRNYLYNSTVFEDIMSWVVAMSSSTMRPIRHTATVFCLNIMTFLCEKSKELLNEHAIATKQLEKEEKRSRVNRNRINELNNSLGEIVKQQDTLTTYLNDYFDSVFVHRYRDVEPKIRVDCLQELGVWINTVPSIFFSGSYLRYLGWMLSDINTTVRLTVVKVLRKFFETDSFIGGLRHFSSRFKERILEMSCVDADIGVRVASIRLCNAMRTCGFLENSEILKVLKLILDINPRVQREAVLFLCKVVDESVNEKIDLWGEEDYILKAFSQTSLTTFSVHWIKFSQMCKLLEEVRLSYQSSFDYDTLLRIFQKNGNFITPITQALLNACEIDSIYQSWEDISNFVLFDNYTSTLKDPIDSILSFCKLNDFQESILLQLLSASIQTVCNNNFITPKTVHNKQAAETTNDQNKDKDLLYLNLLPYINSITERNSASPTLLHDSLRLLFSMDLTEMTDPQLSRHFELLINNLKKFFLTNNDLQIIQGCTILFLRLDSIPALKEDLKLLVTDICDQTVTEFLKNFGSFNIQDAVITKDEFVIFEACLTRIEGCTSLKDFSDYPEFDIIYERLVSLLSRVPNSYEDTLKFSAINTLQSLLFWFFLRKDNPADEEKKKDDETKVFNCLINIMNNDSSKILQLQAARTFLETVIMKEGVKASHYNDDNRVSEEHNFLKPQFLDALLKILEGWLYTYAKVGQFPFKRLTQASSPHTQISLDKNPLNRRLLEHVCCDLTSKLLIVVSLSNTITPEFSQQFCELRGHYGPKLSAIVDEFLN
notes: Psc3 (Scc3/STAG1/2), HEAT repeat subunit of fission yeast cohesin; Subunit of the wild-type tetramer; constructs from Murayama and Uhlmann, 2014; also called Psc3^Scc3/STAG1/2; Scc3; source: budding yeast (W303 background), galactose-induced, purified as part of the cohesin tetramer

Experiments:
[1] = target: T1, fission yeast cohesin (Psm1-Psm3-Rad21-Psc3) with Mis4-Ssl3 loader (Schizosaccharomyces pombe, UniProt O42649+O94383); assay: ATP hydrolysis, [gamma-33P]-ATP thin layer chromatography; type: biochemical; details: 0.25 mM ATP, Mis4-Ssl3, pBluescript dsDNA, 32 °C
T1 construct: tetramer expressed in budding yeast (W303); Mis4-Ssl3 expressed in fission yeast; FRET rows carry SNAP on Psm1 and CLIP on Psm3 C termini; with Cohesin subunit rad21; Cohesin subunit psc3; Sister chromatid cohesion protein mis4; MAU2 chromatid cohesion factor homolog ssl3
T1 sequence (O94383 whole entry, one chain of several): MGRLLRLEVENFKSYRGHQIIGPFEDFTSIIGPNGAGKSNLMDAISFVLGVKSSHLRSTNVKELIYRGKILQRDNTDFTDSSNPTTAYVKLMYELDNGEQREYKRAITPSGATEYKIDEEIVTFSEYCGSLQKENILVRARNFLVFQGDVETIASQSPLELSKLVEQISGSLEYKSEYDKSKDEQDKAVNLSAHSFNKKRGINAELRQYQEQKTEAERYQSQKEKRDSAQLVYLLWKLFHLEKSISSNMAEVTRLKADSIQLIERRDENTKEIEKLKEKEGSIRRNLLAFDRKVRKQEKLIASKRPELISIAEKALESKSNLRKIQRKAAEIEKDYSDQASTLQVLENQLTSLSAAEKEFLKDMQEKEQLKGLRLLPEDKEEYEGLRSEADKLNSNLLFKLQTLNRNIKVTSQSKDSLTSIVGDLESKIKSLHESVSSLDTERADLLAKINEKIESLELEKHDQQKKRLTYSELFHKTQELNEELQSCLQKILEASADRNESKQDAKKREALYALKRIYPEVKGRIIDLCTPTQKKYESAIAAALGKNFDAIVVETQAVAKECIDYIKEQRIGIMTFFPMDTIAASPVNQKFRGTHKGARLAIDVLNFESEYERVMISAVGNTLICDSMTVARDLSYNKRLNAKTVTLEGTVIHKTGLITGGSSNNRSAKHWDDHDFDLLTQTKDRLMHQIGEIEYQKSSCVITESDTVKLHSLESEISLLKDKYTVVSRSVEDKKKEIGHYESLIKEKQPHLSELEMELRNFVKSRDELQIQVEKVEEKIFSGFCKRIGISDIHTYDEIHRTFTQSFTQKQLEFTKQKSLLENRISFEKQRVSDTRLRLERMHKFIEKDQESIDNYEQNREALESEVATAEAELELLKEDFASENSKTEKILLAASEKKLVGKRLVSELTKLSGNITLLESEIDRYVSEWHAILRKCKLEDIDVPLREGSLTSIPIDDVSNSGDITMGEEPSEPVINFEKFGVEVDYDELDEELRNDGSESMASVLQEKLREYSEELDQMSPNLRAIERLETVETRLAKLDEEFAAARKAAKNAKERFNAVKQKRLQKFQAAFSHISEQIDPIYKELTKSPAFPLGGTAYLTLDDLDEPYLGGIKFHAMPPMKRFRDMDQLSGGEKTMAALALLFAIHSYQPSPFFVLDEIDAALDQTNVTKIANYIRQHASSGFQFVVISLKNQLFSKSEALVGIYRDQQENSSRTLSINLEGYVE
T1 sequence (O42649 whole entry, one chain of several): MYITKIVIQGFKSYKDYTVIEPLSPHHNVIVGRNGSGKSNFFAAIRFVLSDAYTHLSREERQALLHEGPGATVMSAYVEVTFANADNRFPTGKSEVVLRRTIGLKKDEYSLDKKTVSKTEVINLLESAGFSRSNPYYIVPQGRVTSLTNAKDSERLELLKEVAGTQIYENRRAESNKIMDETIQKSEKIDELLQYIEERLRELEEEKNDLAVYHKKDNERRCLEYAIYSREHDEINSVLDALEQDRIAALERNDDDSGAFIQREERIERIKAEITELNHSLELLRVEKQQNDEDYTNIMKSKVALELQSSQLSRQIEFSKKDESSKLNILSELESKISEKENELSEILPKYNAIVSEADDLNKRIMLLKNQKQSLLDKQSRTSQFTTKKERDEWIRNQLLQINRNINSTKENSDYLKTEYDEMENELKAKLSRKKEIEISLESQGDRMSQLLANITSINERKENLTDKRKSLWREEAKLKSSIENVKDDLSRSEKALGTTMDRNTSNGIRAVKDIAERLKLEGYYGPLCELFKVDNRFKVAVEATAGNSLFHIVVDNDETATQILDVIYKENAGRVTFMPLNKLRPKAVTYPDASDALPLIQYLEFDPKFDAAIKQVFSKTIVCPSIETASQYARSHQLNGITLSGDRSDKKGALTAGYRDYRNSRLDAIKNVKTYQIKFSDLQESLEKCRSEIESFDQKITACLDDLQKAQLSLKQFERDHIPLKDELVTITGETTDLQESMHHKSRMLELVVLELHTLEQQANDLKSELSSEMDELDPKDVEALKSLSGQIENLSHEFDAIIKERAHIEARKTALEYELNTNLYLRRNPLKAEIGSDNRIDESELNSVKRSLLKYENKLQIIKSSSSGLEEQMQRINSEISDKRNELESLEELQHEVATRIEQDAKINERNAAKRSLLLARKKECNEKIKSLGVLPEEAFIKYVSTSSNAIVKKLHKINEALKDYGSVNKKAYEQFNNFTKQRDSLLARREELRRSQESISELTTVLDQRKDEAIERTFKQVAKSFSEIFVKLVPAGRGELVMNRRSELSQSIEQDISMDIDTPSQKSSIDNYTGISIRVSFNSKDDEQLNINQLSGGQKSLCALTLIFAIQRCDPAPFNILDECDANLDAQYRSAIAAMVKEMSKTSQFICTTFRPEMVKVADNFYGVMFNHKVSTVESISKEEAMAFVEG
T1 sequence (P30776 whole entry partner, one chain of several): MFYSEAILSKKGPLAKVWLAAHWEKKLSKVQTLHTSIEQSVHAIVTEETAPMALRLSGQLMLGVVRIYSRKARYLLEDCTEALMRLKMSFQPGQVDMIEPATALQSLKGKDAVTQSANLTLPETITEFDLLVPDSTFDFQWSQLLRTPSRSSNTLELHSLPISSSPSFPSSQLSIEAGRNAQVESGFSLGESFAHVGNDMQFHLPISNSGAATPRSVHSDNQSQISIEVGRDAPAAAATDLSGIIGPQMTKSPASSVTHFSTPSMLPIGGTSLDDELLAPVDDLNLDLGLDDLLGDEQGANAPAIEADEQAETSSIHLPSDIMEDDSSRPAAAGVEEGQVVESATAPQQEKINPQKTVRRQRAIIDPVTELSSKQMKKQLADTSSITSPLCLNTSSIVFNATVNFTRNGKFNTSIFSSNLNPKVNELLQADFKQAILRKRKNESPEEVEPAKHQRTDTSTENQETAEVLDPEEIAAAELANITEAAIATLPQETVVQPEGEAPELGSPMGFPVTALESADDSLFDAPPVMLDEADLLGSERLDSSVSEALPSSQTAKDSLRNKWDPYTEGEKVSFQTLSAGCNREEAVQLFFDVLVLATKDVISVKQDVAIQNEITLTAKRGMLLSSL
T1 sequence (Q09725 whole entry partner, one chain of several): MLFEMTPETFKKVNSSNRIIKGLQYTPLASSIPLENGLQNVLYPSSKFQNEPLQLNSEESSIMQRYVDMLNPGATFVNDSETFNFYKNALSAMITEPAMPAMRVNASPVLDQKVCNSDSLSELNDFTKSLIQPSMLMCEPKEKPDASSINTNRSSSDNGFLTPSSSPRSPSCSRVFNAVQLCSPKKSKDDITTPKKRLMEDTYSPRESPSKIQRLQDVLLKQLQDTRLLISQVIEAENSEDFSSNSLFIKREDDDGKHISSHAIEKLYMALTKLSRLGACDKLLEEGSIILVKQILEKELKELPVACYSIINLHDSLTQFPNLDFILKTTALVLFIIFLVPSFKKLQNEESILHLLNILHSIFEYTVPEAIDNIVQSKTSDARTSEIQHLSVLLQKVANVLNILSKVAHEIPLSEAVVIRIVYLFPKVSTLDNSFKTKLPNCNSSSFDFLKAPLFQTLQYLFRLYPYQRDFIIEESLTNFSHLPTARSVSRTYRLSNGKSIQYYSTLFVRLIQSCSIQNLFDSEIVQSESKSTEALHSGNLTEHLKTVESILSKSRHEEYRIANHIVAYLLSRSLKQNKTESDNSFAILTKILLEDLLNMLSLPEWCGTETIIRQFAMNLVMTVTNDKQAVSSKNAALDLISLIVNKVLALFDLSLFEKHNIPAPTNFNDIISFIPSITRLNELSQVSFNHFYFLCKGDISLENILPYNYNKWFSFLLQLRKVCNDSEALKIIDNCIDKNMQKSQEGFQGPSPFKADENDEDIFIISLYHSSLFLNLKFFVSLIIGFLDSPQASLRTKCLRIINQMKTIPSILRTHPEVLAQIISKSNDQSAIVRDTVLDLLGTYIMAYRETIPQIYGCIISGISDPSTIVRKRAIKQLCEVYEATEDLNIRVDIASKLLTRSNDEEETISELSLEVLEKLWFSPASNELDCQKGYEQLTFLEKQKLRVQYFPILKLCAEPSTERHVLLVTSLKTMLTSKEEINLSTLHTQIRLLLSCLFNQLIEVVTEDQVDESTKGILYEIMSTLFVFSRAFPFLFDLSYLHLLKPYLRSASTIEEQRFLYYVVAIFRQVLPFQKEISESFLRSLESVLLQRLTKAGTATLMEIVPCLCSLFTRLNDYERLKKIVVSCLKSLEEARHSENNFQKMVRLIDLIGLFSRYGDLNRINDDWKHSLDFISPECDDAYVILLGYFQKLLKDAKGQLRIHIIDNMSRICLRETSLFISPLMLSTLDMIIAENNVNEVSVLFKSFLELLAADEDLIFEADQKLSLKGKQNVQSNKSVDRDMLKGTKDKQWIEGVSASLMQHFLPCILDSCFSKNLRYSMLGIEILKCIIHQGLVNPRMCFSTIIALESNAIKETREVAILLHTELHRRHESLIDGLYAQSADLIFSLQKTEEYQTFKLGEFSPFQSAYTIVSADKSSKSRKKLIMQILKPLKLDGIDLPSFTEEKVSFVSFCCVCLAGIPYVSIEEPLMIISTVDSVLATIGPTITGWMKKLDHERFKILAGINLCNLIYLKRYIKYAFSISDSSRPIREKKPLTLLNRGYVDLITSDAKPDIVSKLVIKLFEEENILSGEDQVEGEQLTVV

[2] = target: T2, N17-cohesin with Mis4-Ssl3 loader (Schizosaccharomyces pombe, UniProt O42649+O94383); assay: as above; type: biochemical; details: 0.25 mM ATP, Mis4-Ssl3, pBluescript dsDNA, 32 °C
T2 construct: gene psm1; as P1 but Rad21 lacks amino acids 1-17 (residues 18-646); expressed in budding yeast; with Cohesin subunit rad21; Cohesin subunit psc3; Sister chromatid cohesion protein mis4; MAU2 chromatid cohesion factor homolog ssl3

[3] = target: T3, fission yeast cohesin (Psm1-Psm3-Rad21-Psc3) with Mis4-Ssl3 loader (Schizosaccharomyces pombe, UniProt O42649+O94383, O42649:E1126Q/O94383:E1161Q); assay: FRET between SNAP/CLIP-labelled ATPase heads; type: binding; details: hydrolysis-deficient EQ-cohesin; 0.5 mM ATP, Mis4-Ssl3, DNA, 1 mM MgCl2, pH 7.5, 32 °C
T3 construct: tetramer expressed in budding yeast (W303); Mis4-Ssl3 expressed in fission yeast; FRET rows carry SNAP on Psm1 and CLIP on Psm3 C termini; with Cohesin subunit rad21; Cohesin subunit psc3; Sister chromatid cohesion protein mis4; MAU2 chromatid cohesion factor homolog ssl3
T3 sequence (O94383 whole entry E1161Q, one chain of several): as the sequence (O94383 whole entry, one chain of several) above, with E1161Q counted along it
T3 sequence (O42649 whole entry E1126Q, one chain of several): as the sequence (O42649 whole entry, one chain of several) above, with E1126Q counted along it
T3 sequence (P30776 whole entry partner, one chain of several): as the sequence (P30776 whole entry partner, one chain of several) above
T3 sequence (Q09725 whole entry partner, one chain of several): as the sequence (Q09725 whole entry partner, one chain of several) above

Psc3 = target: B2; assay: cross-linking; SDA (NHS-diazirine) UV crosslinking with mass spectrometry (CLMS), gripping state: 200 nM cohesin, 200 nM Mis4-Ssl3, 200 nM 125 bp dsDNA, 0.5 mM ADP and 0.5 mM BeSO4 + 10 mM NaF, 32°C 20 min; details: both partners purified
Mis4 = target: T4, Mis4 (fission yeast (S. pombe), UniProt Q09725 1-1587); assay: as above; details: both partners purified
T4 construct: Mis4 (Scc2/NIPBL), fission yeast cohesin loader; Used as the Mis4-Ssl3 complex; construct from Murayama and Uhlmann, 2014; also called Mis4^Scc2/NIPBL; cohesin loader; source: fission yeast, thiamine-repressible expression, purified as Mis4-Ssl3
T4 sequence (Q09725 whole entry): as the sequence (Q09725 whole entry partner, one chain of several) above

Molecule: Nc1ncnc2c1ncn2[C@@H]1O[C@H](COP(=O)(O)OP(=O)(O)OP(=O)(O)O)[C@@H](O)[C@H]1O [ATP]
ATP hydrolysis, [gamma-33P]-ATP thin layer chromatography [1]: loader-stimulated ATP hydrolysis were equal when using wild-type or N17-cohesin
ATP hydrolysis, [gamma-33P]-ATP thin layer chromatography [2]: loader-stimulated ATP hydrolysis were equal when using wild-type or N17-cohesin
FRET between SNAP/CLIP-labelled ATPase heads [3]: the presence of all three components—the loader, DNA, and ATP—resulted in a marked FRET increase

Molecule: B1
binding result (Psc3): binds

Molecule: B2
binding result (Mis4): binds
